The source of these data is patent US20250034170A1, “SMALL MOLECULE MODULATORS OF GLUCOCEREBROSIDASE ACTIVITY AND USES THEREOF” (Vanqua Bio, Inc., priority 2021, published 2025).

This test concerns the target T1, GCase (Homo sapiens, UniProt P04062).
T1 construct: endogenous in cells; host or cells: HeLa cells
T1 sequence (P04062 40-536): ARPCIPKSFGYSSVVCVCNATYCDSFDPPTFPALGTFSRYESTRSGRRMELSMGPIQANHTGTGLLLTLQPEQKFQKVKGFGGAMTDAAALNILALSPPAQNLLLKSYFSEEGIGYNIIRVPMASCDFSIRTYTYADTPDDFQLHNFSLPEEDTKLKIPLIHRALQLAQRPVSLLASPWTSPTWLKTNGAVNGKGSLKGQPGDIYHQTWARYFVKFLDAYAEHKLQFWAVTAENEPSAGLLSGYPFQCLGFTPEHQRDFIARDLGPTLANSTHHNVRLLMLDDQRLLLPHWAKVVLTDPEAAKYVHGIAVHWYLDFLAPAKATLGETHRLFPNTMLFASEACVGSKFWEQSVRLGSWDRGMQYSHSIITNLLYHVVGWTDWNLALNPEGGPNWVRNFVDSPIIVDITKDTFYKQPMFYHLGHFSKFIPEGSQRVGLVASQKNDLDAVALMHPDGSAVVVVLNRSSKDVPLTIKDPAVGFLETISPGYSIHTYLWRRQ
The test is described as follows: activation of GCase in a live cell PFB assay in HELA cells. It counts as cell-based. The conditions noted are these: activation of GCase, EC50 ranges. How it is done: Exemplary compounds were evaluated for activation of GCase in a live cell PFB assay in HELA cells (essentially as described in Ysselstein et al., “LRRK2 kinase activity regulates lysosomal glucocerebrosidase in neurons derived from Parkinson's disease patients” Nature Communications (2019) 10:5570). […] EC50 ranges: A: <10 μM; B: >10-50 μM; C: >50-100 μM; D: >100 μM.
With `Cc1nn(CC(F)F)c2nc(N3CCC4(CCN(c5cc(C(F)(F)F)ccn5)CC4)C3)cnc12` [Compound 140, 2-[1-(2,2-difluoroethyl)-3-methyl-1H-pyrazolo[3,4-b]pyrazin-6-yl]-8-[4-(trifluoromethyl)pyridin-2-yl]-2,8-diazaspiro[4.5]decane], the EC50 (commonly the concentration needed to bring the measured effect to its halfway point) fell in the range of 10 to 50 µM. Under `FC(F)(F)c1ccnc(N2CCC3(CC2)CCN(c2cncc(-c4nncs4)n2)C3)c1` [Compound 141, 2-[6-(1,3,4-thiadiazol-2-yl)pyrazin-2-yl]-8-[4-(trifluoromethyl)pyridin-2-yl]-2,8-diazaspiro[4.5]decane] stands 10 to 50 µM; under `O=C1N(c2cc(C(F)(F)F)ccn2)CCC12CCN(c1cnc3cnn(CC(F)(F)F)c3n1)CC2` [Compound 142, 8-[1-(2,2,2-trifluoroethyl)-1H-pyrazolo[3,4-b]pyrazin-6-yl]-2-[4-(trifluoromethyl)pyridin-2-yl]-2,8-diazaspiro[4.5]decan-1-one], < 10 µM; under `FC(F)Cn1ncc2ncc(N3CCC4(CCN(c5cccc(C(F)(F)F)n5)C4)CC3)nc21` [Compound 143, 8-[1-(2,2-difluoroethyl)-1H-pyrazolo[3,4-b]pyrazin-6-yl]-2-[6-(trifluoromethyl)pyridin-2-yl]-2,8-diazaspiro[4.5]decane], < 10 µM. Consider `FC(F)Cn1ncc2ncc(N3CCC4(CCN(c5ccc(C(F)(F)F)cn5)C4)CC3)nc21` [Compound 144, 8-[1-(2,2-difluoroethyl)-1H-pyrazolo[3,4-b]pyrazin-6-yl]-2-[5-(trifluoromethyl)pyridin-2-yl]-2,8-diazaspiro[4.5]decane], for which the 50% effective concentration (EC50) was < 10 µM. Under `FC(F)Cn1ncc2ncc(N3CCC4(CC3)CCN(c3ncccc3C(F)(F)F)C4)nc21` [Compound 145, 8-[1-(2,2-difluoroethyl)-1H-pyrazolo[3,4-b]pyrazin-6-yl]-2-[3-(trifluoromethyl)pyridin-2-yl]-2,8-diazaspiro[4.5]decane] stands 10 to 50 µM. As for `FC(F)Cn1ncc2ncc(N3CCC4(CC3)CCN(c3cccnc3C(F)(F)F)C4)nc21` [Compound 146, 8-[1-(2,2-difluoroethyl)-1H-pyrazolo[3,4-b]pyrazin-6-yl]-2-[2-(trifluoromethyl)pyridin-3-yl]-2,8-diazaspiro[4.5]decane], the EC50 was < 10 µM. In the case of `FC(F)Cn1ncc2ncc(N3CCC4(CCN(c5ccc(C(F)(F)F)nc5)C4)CC3)nc21` [Compound 147, 8-[1-(2,2-difluoroethyl)-1H-pyrazolo[3,4-b]pyrazin-6-yl]-2-[6-(trifluoromethyl)pyridin-3-yl]-2,8-diazaspiro[4.5]decane], the EC50 was < 10 µM. With `FC(F)Cn1ncc2ncc(N3CCC4(CCN(c5cncc(C(F)(F)F)c5)C4)CC3)nc21` [Compound 148, 8-[1-(2,2-difluoroethyl)-1H-pyrazolo[3,4-b]pyrazin-6-yl]-2-[5-(trifluoromethyl)pyridin-3-yl]-2,8-diazaspiro[4.5]decane], the EC50 was < 10 µM. Under `FC(F)Cn1ncc2ncc(N3CCC4(CCN(c5cccc(C(F)(F)F)n5)CC4)C3)nc21` [Compound 149, 2-[1-(2,2-difluoroethyl)-1H-pyrazolo[3,4-b]pyrazin-6-yl]-8-[6-(trifluoromethyl)pyridin-2-yl]-2,8-diazaspiro[4.5]decane] stands < 10 µM. Next, `FC(F)Cn1ncc2ncc(N3CCC4(CCN(c5ccc(C(F)(F)F)cn5)CC4)C3)nc21` [Compound 150, 2-[1-(2,2-difluoroethyl)-1H-pyrazolo[3,4-b]pyrazin-6-yl]-8-[5-(trifluoromethyl)pyridin-2-yl]-2,8-diazaspiro[4.5]decane]: 10 to 50 µM; `FC(F)Cn1ncc2ncc(N3CCC4(CCN(c5ncccc5C(F)(F)F)CC4)C3)nc21` [Compound 151, 2-[1-(2,2-difluoroethyl)-1H-pyrazolo[3,4-b]pyrazin-6-yl]-8-[3-(trifluoromethyl)pyridin-2-yl]-2,8-diazaspiro[4.5]decane]: 10 to 50 µM. Consider `FC(F)Cn1ncc2ncc(N3CCC4(CCN(c5ccc(C(F)(F)F)nc5)CC4)C3)nc21` [Compound 152, 2-[1-(2,2-difluoroethyl)-1H-pyrazolo[3,4-b]pyrazin-6-yl]-8-[6-(trifluoromethyl)pyridin-3-yl]-2,8-diazaspiro[4.5]decane], for which the EC50 was < 10 µM. Consider `FC(F)Cn1ncc2ncc(N3CCC4(CCN(c5cncc(C(F)(F)F)c5)CC4)C3)nc21` [Compound 153, 2-[1-(2,2-difluoroethyl)-1H-pyrazolo[3,4-b]pyrazin-6-yl]-8-[5-(trifluoromethyl)pyridin-3-yl]-2,8-diazaspiro[4.5]decane], for which the EC50 is < 10 µM.

On to `FC(F)Cn1ncc2ncc(N3CCC4(CCN(c5ccnc(C(F)(F)F)c5)C4)CC3)nc21` [Compound 154, 8-[1-(2,2-difluoroethyl)-1H-pyrazolo[3,4-b]pyrazin-6-yl]-2-[2-(trifluoromethyl)pyridin-4-yl]-2,8-diazaspiro[4.5]decane], for which the EC50 was < 10 µM. Next, `FC(F)Cn1ncc2ncc(N3CCC4(CCN(c5ccnc(C(F)(F)F)c5)CC4)C3)nc21` [Compound 155, 2-[1-(2,2-difluoroethyl)-1H-pyrazolo[3,4-b]pyrazin-6-yl]-8-[2-(trifluoromethyl)pyridin-4-yl]-2,8-diazaspiro[4.5]decane]: < 10 µM. On to `FC(F)Cn1ncc2ncc(N3CCC4(CC3)CCN(c3ccncc3C(F)(F)F)C4)nc21` [Compound 156, 8-[1-(2,2-difluoroethyl)-1H-pyrazolo[3,4-b]pyrazin-6-yl]-2-[3-(trifluoromethyl)pyridin-4-yl]-2,8-diazaspiro[4.5]decane], for which the EC50 was < 10 µM. Under `FC(F)Cn1ncc2ncc(N3CC4(CCCN(c5ccc(C(F)F)nc5)C4)C3)nc21` [Compound 157, 2-[1-(2,2-difluoroethyl)-1H-pyrazolo[3,4-b]pyrazin-6-yl]-6-[6-(difluoromethyl)pyridin-3-yl]-2,6-diazaspiro[3.5]nonane] stands > 100 µM. Under `FC(F)c1ccc(N2CCCC3(C2)CN(c2cnc4cnn(CC(F)(F)F)c4n2)C3)cn1` [Compound 158, 6-[6-(difluoromethyl)pyridin-3-yl]-2-[1-(2,2,2-trifluoroethyl)-1H-pyrazolo[3,4-b]pyrazin-6-yl]-2,6-diazaspiro[3.5]nonane] stands > 100 µM. Under `Cc1nn(CC(F)F)c2nc(N3CC4(CCCN(c5ccc(C(F)F)nc5)C4)C3)cnc12` [Compound 159, 2-[1-(2,2-difluoroethyl)-3-methyl-1H-pyrazolo[3,4-b]pyrazin-6-yl]-6-[6-(difluoromethyl)pyridin-3-yl]-2,6-diazaspiro[3.5]nonane] stands > 100 µM; under `FC(F)c1ccc(N2CCCC3(C2)CN(c2cncc(-c4nncs4)n2)C3)cn1` [Compound 160, 6-[6-(difluoromethyl)pyridin-3-yl]-2-[6-(1,3,4-thiadiazol-2-yl)pyrazin-2-yl]-2,6-diazaspiro[3.5]nonane], 10 to 50 µM. Consider `FC(F)Cn1ncc2ncc(N3CCC4(CCN(c5cc(C(F)F)ccn5)CC4)C3)nc21` [Compound 161, 2-[1-(2,2-difluoroethyl)-1H-pyrazolo[3,4-b]pyrazin-6-yl]-8-[4-(difluoromethyl)pyridin-2-yl]-2,8-diazaspiro[4.5]decane], for which the EC50 fell in the range of 10 to 50 µM.

As for `FC(F)c1ccnc(N2CCC3(CC2)CCN(c2cnc4cnn(CC(F)(F)F)c4n2)C3)c1` [Compound 162, 8-[4-(difluoromethyl)pyridin-2-yl]-2-[1-(2,2,2-trifluoroethyl)-1H-pyrazolo[3,4-b]pyrazin-6-yl]-2,8-diazaspiro[4.5]decane], the EC50 is < 10 µM.

Take `Cc1nn(CC(F)F)c2nc(N3CCC4(CCN(c5cc(C(F)F)ccn5)CC4)C3)cnc12` [Compound 163, 2-[1-(2,2-difluoroethyl)-3-methyl-1H-pyrazolo[3,4-b]pyrazin-6-yl]-8-[4-(difluoromethyl)pyridin-2-yl]-2,8-diazaspiro[4.5]decane]: the EC50 was < 10 µM. Under `FC(F)c1ccnc(N2CCC3(CC2)CCN(c2cncc(-c4nncs4)n2)C3)c1` [Compound 164, 8-[4-(difluoromethyl)pyridin-2-yl]-2-[6-(1,3,4-thiadiazol-2-yl)pyrazin-2-yl]-2,8-diazaspiro[4.5]decane] stands 10 to 50 µM; under `O=C1N(c2cc(C(F)F)ccn2)CCC12CCN(c1cnc3cnn(CC(F)F)c3n1)CC2` [Compound 165, 8-[1-(2,2-difluoroethyl)-1H-pyrazolo[3,4-b]pyrazin-6-yl]-2-[4-(difluoromethyl)pyridin-2-yl]-2,8-diazaspiro[4.5]decan-1-one], < 10 µM; under `O=C1N(c2cc(C(F)F)ccn2)CCC12CCN(c1cnc3cnn(CC(F)(F)F)c3n1)CC2` [Compound 166, 2-[4-(difluoromethyl)pyridin-2-yl]-8-[1-(2,2,2-trifluoroethyl)-1H-pyrazolo[3,4-b]pyrazin-6-yl]-2,8-diazaspiro[4.5]decan-1-one], < 10 µM. In turn, `Cc1nn(CC(F)F)c2nc(N3CCC4(CC3)CCN(c3cc(C(F)F)ccn3)C4=O)cnc12` [Compound 167, 8-[1-(2,2-difluoroethyl)-3-methyl-1H-pyrazolo[3,4-b]pyrazin-6-yl]-2-[4-(difluoromethyl)pyridin-2-yl]-2,8-diazaspiro[4.5]decan-1-one] gave a concentration giving a half-maximal response (EC50) of 10 to 50 µM.
